Values of other authors as cited in PubChem BioAssay AID1259409 (Chemical Carcinogenesis Research Information System (CCRIS), 2018).

Test system: rodent chemically induced tumor inhibition, incidence and multiplicity
Experiment: CCRIS tumor inhibitor studies
Conditions: Promoter: NONE USED

Structure (SMILES): COc1ccc2c(c1)c(CC(=O)O)c(C)n2C(=O)c1ccc(Cl)cc1
- tumour outcome (control, treated, inhibition, significance) (Carcinogen: N-ETHYL-N-NITROSOUREA, 759-73-9, Dose [Inhibitor]: 0, 20 MG/L IN DRINKING WATER FOR 12 MO ADMINISTERED TO OFFSPRING OF CARCINOGEN-TREATED MOTHERS (STUDY DURATION: 12 MO), Route [Inhibitor]: ORAL, Species: RAT, Strain/Sex: ALBINO/MALE, FEMALE, Target Tissue: Type of Lesion: PERIPHERAL NERVES: TUMOR, Dose [Carcinogen]: 75 MG/KG BW ADMINISTERED INTRAPERITONEALLY TO MOTHERS 21 D POST CONCEPTION): 13/42 (31%), 3/25 (12%), 61%, not significant
- tumour outcome (control, treated, inhibition, significance) (Carcinogen: N-ETHYL-N-NITROSOUREA, 759-73-9, Dose [Inhibitor]: 0, 20 MG/L IN DRINKING WATER FOR 12 MO ADMINISTERED TO OFFSPRING OF CARCINOGEN-TREATED MOTHERS (STUDY DURATION: 12 MO), Route [Inhibitor]: ORAL, Species: RAT, Strain/Sex: ALBINO/MALE, FEMALE, Target Tissue: Type of Lesion: SPINAL CHORD: TUMOR, Dose [Carcinogen]: 75 MG/KG BW ADMINISTERED INTRAPERITONEALLY TO MOTHERS 21 D POST CONCEPTION): 11/42 (26%), 4/25 (16%), 38%, not significant
- tumour outcome (control, treated, inhibition, significance) (Carcinogen: N-METHYL-N-NITROSOUREA, 684-93-5, Dose [Inhibitor]: 2.5 MG/KG BW FOR 10 WK STARTING 21 WK POST CARCINOGEN TREATMENT (STUDY DURATION: 35 WK), Route [Inhibitor]: INTRAPERITONEAL, Species: RAT, Strain/Sex: CD/F344/FEMALE, Target Tissue: Type of Lesion: COLON: ADENOCARCINOMA, Dose [Carcinogen]: 2 MG 3/WK FOR 5 WK): 6/9 (67%), 6/9 (67%), 0%, not significant
- tumour outcome (control, treated, inhibition, significance) (Carcinogen: N-METHYL-N-NITROSOUREA, 684-93-5, Dose [Inhibitor]: 2.5 MG/KG BW FOR 15 WK STARTING 5 WK POST CARCINOGEN TREATMENT (STUDY DURATION: 26 WK), Route [Inhibitor]: INTRAPERITONEAL, Species: RAT, Strain/Sex: CD/F344/FEMALE, Target Tissue: Type of Lesion: COLON: ADENOCARCINOMA, Dose [Carcinogen]: 2 MG 3/WK FOR 5 WK): 20/30 (67%), 9/29 (31%), 54%, p<0.02
- tumour outcome (control, treated, inhibition, significance) (Carcinogen: N-METHYL-N-NITROSOUREA, 684-93-5, Dose [Inhibitor]: 2.5 MG/KG BW FOR 15 WK STARTING 5 WK POST CARCINOGEN TREATMENT FOLLOWED BY 10 WK CESSATION OF TREATMENT (STUDY DURATION:, Route [Inhibitor]: INTRAPERITONEAL, Species: RAT, Strain/Sex: CD/F344/FEMALE, Target Tissue: Type of Lesion: COLON: ADENOCARCINOMA, Dose [Carcinogen]: 2 MG 3/WK FOR 5 WK): 6/9 (67%), 7/9 (78%), -16%, not significant
- tumour outcome (control, treated, inhibition, significance) (Carcinogen: N-METHYL-N-NITROSOUREA, 684-93-5, Dose [Inhibitor]: 10 UG/ML TAP WATER FOR 15 WK STARTING 10 WK AFTER THE START OF CARCINOGEN TREATMENT AND CONTINUING THROUGH END OF STUDY, Route [Inhibitor]: ORAL, Species: RAT, Strain/Sex: CD-FISCHER/FEMALE, Target Tissue: Type of Lesion: LARGE INTESTINE: ADENOCARCINOMA, Dose [Carcinogen]: 2 MG 3/WK FOR 5 WK): 18/27 (67%), 4/28 (14%), 79%, p<0.01
- tumour outcome (control, treated, inhibition, significance) (Carcinogen: N-METHYL-N-NITROSOUREA, 684-93-5, Dose [Inhibitor]: 20 UG/ML TAP WATER FOR 15 WK STARTING 10 WK AFTER THE START OF CARCINOGEN TREATMENT AND CONTINUING THROUGH END OF STUDY, Route [Inhibitor]: ORAL, Species: RAT, Strain/Sex: CD-FISCHER/FEMALE, Target Tissue: Type of Lesion: LARGE INTESTINE: ADENOCARCINOMA, Dose [Carcinogen]: 2 MG 3/WK FOR 5 WK): 18/27 (67%), 4/24 (17%), 75%, p<0.01
- tumour outcome (control, treated, inhibition, significance) (Carcinogen: N-NITROSOMETHYLUREA, 684-93-5, Dose [Inhibitor]: 0, 0.001% IN DRINKING WATER FOR STUDY DAYS 1 TO 8 (STUDY DURATION: 31 WK), Route [Inhibitor]: ORAL, Species: RAT, Strain/Sex: SPRAGUE-DAWLEY/MALE, Target Tissue: Type of Lesion: LARGE BOWEL: ADENOCARCINOMA, Dose [Carcinogen]: 4 MG ON D 3, 5 AND 7 OF STUDY): 26/29 (90%), 20/30 (67%), 26%, not significant
- tumour outcome (control, treated, inhibition, significance) (Carcinogen: UVB IRRADIATION, Dose [Inhibitor]: 700 NMOL IN 0.1 ML ACETONE 5/WK FOR 4 WK IMMEDIATELY AFTER EACH EXPOSURE TO UVB FOLLOWED BY 48 WK OBSERVATION PERIOD (ST, Route [Inhibitor]: DERMAL, Species: MOUSE, Strain/Sex: SKH/HRL/FEMALE, Target Tissue: Type of Lesion: SKIN: TUMOR, Dose [Carcinogen]: 0.3 KJ/SQM ON FIRST DAY, 0.6 KJ/SQM ON SECOND DAY THEN 0.9 KJ/SQM UVB ADMINISTERED 5 D/WK FOR 4 WK): 8/27 (30%), 6/26 (23%), 23%, not significant
- tumour outcome (control, treated, inhibition, significance) (Dose [Inhibitor]: 0, 0.005% IN DIET FOR DURATION OF STUDY BEGINNING SIMULTANEOUSLY WITH CARCINOGEN TREATMENT (STUDY DURATION: 40 WK), Route [Inhibitor]: ORAL, Species: RAT, Strain/Sex: WISTAR/MALE, Target Tissue: Type of Lesion: COLON: TUMOR, Dose [Carcinogen]: 1 ML OF 0.1% DISTILLED WATER SOLUTION 1/D FOR 14 D): 27/33 (82%), 5/18 (28%), 66%, p<0.01
